Results reported in patent publication US20240239780A1, “MODIFIED FERROPORTIN INHIBITORS” (Vifor (International) AG, priority 2021, published 2024).

Molecular target: T1, ferroportin (Fpn) (Mus musculus, UniProt Q9JHI9)
T1 construct: endogenous in cells; host or cells: J774 mouse macrophage cell line, induced with Fe(III)NTA
T1 sequence (Q9JHI9 1-570): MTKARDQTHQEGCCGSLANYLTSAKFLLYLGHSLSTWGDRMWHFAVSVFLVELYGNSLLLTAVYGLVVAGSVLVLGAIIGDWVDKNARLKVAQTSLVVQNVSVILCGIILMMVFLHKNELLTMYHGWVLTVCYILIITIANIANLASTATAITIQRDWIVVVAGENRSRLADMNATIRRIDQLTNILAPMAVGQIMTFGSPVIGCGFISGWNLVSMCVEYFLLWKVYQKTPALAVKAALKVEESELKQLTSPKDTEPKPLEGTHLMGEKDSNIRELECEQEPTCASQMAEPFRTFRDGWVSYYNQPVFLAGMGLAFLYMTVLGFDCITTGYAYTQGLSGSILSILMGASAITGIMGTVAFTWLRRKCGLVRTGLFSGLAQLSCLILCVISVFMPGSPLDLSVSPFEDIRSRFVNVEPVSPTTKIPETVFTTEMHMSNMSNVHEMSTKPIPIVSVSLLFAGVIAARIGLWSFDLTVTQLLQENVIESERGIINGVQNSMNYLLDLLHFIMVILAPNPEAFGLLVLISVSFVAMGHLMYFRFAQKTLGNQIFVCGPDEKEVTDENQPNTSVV
Experiment: Hepcidin Internalization Assay (J774)
Assay type: cell-based
Details: J774 cells, TMR-hepcidin 25 nM, 2 hours; read-out: IC 50, average (AVE) of multiple measurements, hepcidin internalization assay
Source text: This cellular assay allows quantification of the binding of hepcidin to ferroportin (Fpn) through microscopic detection of internalization of a fluorescently labeled hepcidin into J774 cells. […] Binding of hepcidin to Fpn triggers internalization and degradation of both hepcidin and Fpn. […] Therefore, microscopic detection of cell-associated TMR fluorescence is a measure of hepcidin binding to Fpn and internalization of hepcidin and Fpn. If TMR-hepcidin is prevented from binding to Fpn, cellular TMR fluorescence remains low (Dürrenberger et al, 2013). The effect of small molecular weight Fpn inhibitor compounds in this assay was evaluated in vitro as described below. […] Cat. 655090) and grown at 37° C. with 5% CO2. After overnight incubation, cells were washed 3 times with pre-warmed DMEM w/o phenol red, 30 μl/well of DMEM w/o phenol red was added after the final wash and 10 μl/well of dilution series of test compounds were added in triplicates. […] Cells were incubated in a total volume of 50 μl at 37° C. with 5% CO2 for 2 hours, then Hoechst 33342 dye was added to a final concentration of 0.5 μg/ml to stain nuclei and further incubated for 10 min. at 37° C. with 5% CO2. […] After removal of the paraformaldehyde solution, cells were washed 3 times with PBS leaving 100 μl per well and the plates were sealed with foil plate seal. […] The acquired image data was analysed with the […] analysis software. […] IC50 values were calculated with the Sum(Mean) raw data using “log(inhibitor) vs. response” curve fitting of Prism 5 software (GraphPad Software Inc., version 5.02). For each data set the fit of the “log(inhibitor) vs. response (three parameters)” model was compared to the fit of the “log(inhibitor) vs. response-Variable slope (four parameters)” model and the IC50 data of the preferred model was used.

Compared with `O=C(NCc1ncccc1F)c1coc(CCNCCc2nc3cc(C#Cc4cccnc4)ccc3[nH]2)n1` [compound 73], `O=C(NCc1ncccc1F)c1coc(CCNCCc2nc3cccc(C#Cc4cccnc4)c3[nH]2)n1` [compound 80] is 42-fold higher in IC50: 0.002 µM for the first, 0.083 µM for the second.

`COc1cccnc1CNC(=O)c1coc(CCNCCc2nc3cc(-c4ccc(C)cc4)ccc3[nH]2)n1` [compound 74] and `COc1cccc(-c2ccc3[nH]c(CCNCCc4nc(C(=O)NCc5ncccc5F)co4)nc3c2)c1OC` [compound 83] are within 1.5-fold of each other in IC50: 0.007 µM for the first, 0.006 µM for the second.

Going from `O=C(NCc1ncccc1F)c1coc(CCNCCc2nc3cc(CCc4ccccc4)ccc3[nH]2)n1` [compound 75] to `O=C(NCc1ncccc1F)c1coc(CCNCCc2nc3cc(-c4cccc(Cl)c4)ccc3[nH]2)n1` [compound 85], the IC50 rises from 0.002 µM to 0.011 µM (5.5-fold).

Compared with `CN(C)C(=O)c1cccc(C#Cc2ccc3[nH]c(CCNCCc4nc(C(=O)NCc5ncccc5F)co4)nc3c2)c1` [compound 76], `COc1cccc(C#Cc2cccc3nc(CCNCCc4nc(C(=O)NCc5ncccc5F)co4)[nH]c23)c1` [compound 78] is 14-fold higher in IC50: 0.003 µM for the first, 0.041 µM for the second. The first is the more potent here.

First: O=C(NCc1ncccc1F)c1coc(CCNCCc2nc3cccc(C#Cc4cccc(-c5ncco5)c4)c3[nH]2)n1 [compound 79]
Second: O=C(NCc1ncccc1F)c1coc(CCNCCc2nc3cc(-c4cccc(-c5ncco5)c4)ccc3[nH]2)n1 [compound 87]
The IC50 of the first is 6-fold higher: 0.084 µM for the first, 0.014 µM for the second.

Going from `O=C(NCc1ncccc1F)c1coc(CCNCCc2nc3cc(-c4cccc5c4OCCO5)ccc3[nH]2)n1` [compound 81] to `O=C(NCc1ncccc1F)c1coc(CCNCCc2nc3cc(-c4ccc5c(c4)OCCO5)ccc3[nH]2)n1` [compound 88], the IC50 rises from 0.007 µM to 0.012 µM (1.7-fold). The first is the more potent here.

Compared with `O=C(NCc1ncccc1F)c1coc(CCNCCc2nc3cc(-c4cccc5c4CCCC5)ccc3[nH]2)n1` [compound 82], `O=C(NCc1ncccc1F)c1coc(CCNCCc2nc3cc(-c4ccc5c(c4)CCCC5)ccc3[nH]2)n1` [compound 89] is 1.5-fold lower in IC50: 0.015 µM for the first, 0.01 µM for the second. The second is the more potent here.

`Cc1cccc(-c2ccc3[nH]c(CCNCCc4nc(C(=O)NCc5ncccc5F)co4)nc3c2)c1C` [compound 84] and `O=C(NCc1ncccc1F)c1coc(CCNCCc2nc3cc(-c4ccccc4-c4ncco4)ccc3[nH]2)n1` [compound 86] are within 1.5-fold of each other in IC50: 0.012 µM for the first, 0.009 µM for the second.

`O=C(NCc1ncccc1F)c1coc(CCNCCc2nc3cc(-c4ccc(-c5ncco5)cc4)ccc3[nH]2)n1` [compound 90] was tested, and the IC50 was 0.0058 µM.

Molecular target: human Fpn (Homo sapiens, UniProt Q9NP59)
Experiment: biochemical
Details: not given
Protocol: This biophysical assay was developed to confirm inhibition of hepcidin binding to ferroportin (Fpn) more directly. Incubation of TMR-hepcidin with purified human Fpn isolated from Pichia pastoris yeast cells expressing human Fpn with a C-terminal FLAG affinity tag (Bonaccorsi di Patti, 2014) leads to increased fluorescence polarization (FP) of the TMR-hepcidin ligand.

human Fpn, sequence (Q9NP59 whole entry): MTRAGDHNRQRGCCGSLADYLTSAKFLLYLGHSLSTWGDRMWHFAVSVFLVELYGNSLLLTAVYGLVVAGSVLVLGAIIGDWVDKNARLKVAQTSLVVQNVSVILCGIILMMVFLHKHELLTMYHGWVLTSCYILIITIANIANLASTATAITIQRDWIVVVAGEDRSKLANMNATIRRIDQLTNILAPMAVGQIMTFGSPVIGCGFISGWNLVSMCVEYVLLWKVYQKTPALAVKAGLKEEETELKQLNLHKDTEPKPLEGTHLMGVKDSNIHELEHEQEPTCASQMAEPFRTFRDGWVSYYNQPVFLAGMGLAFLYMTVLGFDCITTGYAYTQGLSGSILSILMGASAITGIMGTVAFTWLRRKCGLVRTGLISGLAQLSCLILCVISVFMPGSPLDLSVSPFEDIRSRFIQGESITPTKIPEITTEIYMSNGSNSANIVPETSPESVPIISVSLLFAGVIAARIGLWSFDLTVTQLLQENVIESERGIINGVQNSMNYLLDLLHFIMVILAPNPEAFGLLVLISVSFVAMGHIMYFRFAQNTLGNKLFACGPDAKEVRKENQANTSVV

`CC[C@H](C)[C@@H]1NC(=O)[C@@H](NC(=O)[C@@H](NC(=O)[C@@H]2CCCN2C(=O)[C@H](Cc2ccccc2)NC(=O)[C@H](Cc2c[nH]cn2)NC(=O)[C@@H](NC(=O)[C@@H](N)CC(=O)O)[C@@H](C)O)[C@@H](C)CC)CSSC[C@@H](C(=O)N[C@@H](CCCCN)C(=O)N[C@H](C(=O)O)[C@@H](C)O)NC(=O)[C@@H]2CSSC[C@@H]3NC(=O)[C@@H]4CSSC[C@H](NC(=O)[C@H](Cc5ccccc5)NC1=O)C(=O)N[C@@H](CSSC[C@H](NC(=O)[C@H](CCCCN)NC(=O)[C@H](CO)NC(=O)[C@H](CCCNC(=N)N)NC(=O)[C@H](Cc1c[nH]cn1)NC3=O)C(=O)NCC(=O)N[C@@H](CCSC)C(=O)N2)C(=O)NCC(=O)N4` [hepcidin] showed an IC50 of ~0.37 µM.

Molecular target: human Fpn-GFP fusion protein (Homo sapiens, UniProt Q9NP59)
Experiment: cell-based
Details: not given
Source text: Growing HEK-293 #354 cells in doxycycline containing media induced expression of human Fpn-GFP fusion protein on the cell surface.

human Fpn-GFP fusion protein, sequence (Q9NP59 whole entry, the tested form may be a part): as the sequence (Q9NP59 whole entry) above

Work on `CC[C@H](C)[C@@H]1NC(=O)[C@@H](NC(=O)[C@@H](NC(=O)[C@@H]2CCCN2C(=O)[C@H](Cc2ccccc2)NC(=O)[C@H](Cc2c[nH]cn2)NC(=O)[C@@H](NC(=O)[C@@H](N)CC(=O)O)[C@@H](C)O)[C@@H](C)CC)CSSC[C@@H](C(=O)N[C@@H](CCCCN)C(=O)N[C@H](C(=O)O)[C@@H](C)O)NC(=O)[C@@H]2CSSC[C@@H]3NC(=O)[C@@H]4CSSC[C@H](NC(=O)[C@H](Cc5ccccc5)NC1=O)C(=O)N[C@@H](CSSC[C@H](NC(=O)[C@H](CCCCN)NC(=O)[C@H](CO)NC(=O)[C@H](CCCNC(=N)N)NC(=O)[C@H](Cc1c[nH]cn1)NC3=O)C(=O)NCC(=O)N[C@@H](CCSC)C(=O)N2)C(=O)NCC(=O)N4` [hepcidin] yielded an EC50 of ~0.004 µM.
